# Target: T1, PRMT5 (Homo sapiens, UniProt O14744)
# T1 construct: endogenous in cells; host or cells: MCF-7
# Test: PRMT5 Cell Target Engagement (TE) Assay
# Type: cell-based
# Conditions: MCF-7 cells, 3 days treatment, nuclear SDMA by high content imaging
# Source text: The PRMT5 TE assay is a biomarker assay for identifying compounds that inhibit symmetric dimethylation of arginine (SDMA) of PRMT5 substrates. The following substrates have been reported for PRMT5: Histone H2A and H4 R3, Histone H3 R2, Histone H3 R8, spliceosome Sm proteins, ribosomal protein RPS10, p53, FEN1, nucleoplasmin, nucleolin, EGFR and EBNA. The assay will focus on detecting symmetrically dimethylated nuclear proteins using high content imaging technology. Detection of the expression of symmetrically dimethylated nuclear proteins is through a mixture of primary rabbit monoclonal antibodies to SDMA (CST 13222), which in turn recognized by an Alexafluor 488 dye-conjugated anti-rabbit IgG secondary antibody. The IN Cell Analyzer 2200 or Opera-Phenix measures nuclear Alexafluor 488 fluorescent dye intensity that is directly related to the level of expression of symmetrically dimethylated nuclear proteins at the single cell level. Nuclear AF488 dye intensities are compared to the mean value for DMSO treated cells (MIN) to report percent of inhibition for each compound-treated well.
# In this assay, the cell potency (EC50) of each compound was determined from a ten point (1:3 serial dilution; top compound concentration of 10000 nM) titration curve using the following outlined procedure. Each well of a BD falcon collagen coated black/clear bottom 384-well plate was seeded with 4000 MCF-7 cells in 30 μl media and allowed to attach for 5 hours. Media is ATCC-formulated Eagle's Minimum Essential Medium, Catalog No. 30-2003. The following components were added to the base medium: 0.01 mg/mL human recombinant insulin; fetal bovine serum to a final concentration of 10%. Additional 30 μl of media containing 2× compounds were added to each well. Cells were treated for 3 days in 37° C. CO2 incubator. On day 3, cells were fixed with Cytofix, permeabilized with 0.4% Triton-X-100/Cytofix, and washed with D-PBS without Ca/Mg. Cells were blocked with Licor Odessey blocking reagent for 1 hour at room temperature, followed by incubation with anti-SDMA (1:1000) antibody at 4° C. overnight. 1° antibody was removed, followed by three washings with DPBS without Ca/Mg and 0.05% Tween20. Hoechst (5 μg/mL), Cell Mask deep stain (1:2000) and Alexa488-conjugated goat anti-rabbit IgG (2 μg/mL) was added for 1 hour at room temperature. A final washing step (three washes) was performed before sealing plate for imaging on In Cell Analyzer 2200 or Opera-Phenix. Images from analyzer were uploaded to Columbus for image analysis. IC50 values were determined by 4 parameters robust fit of percent fluorescence units vs. (Log10) compound concentrations.
# T1 sequence (O14744 whole entry): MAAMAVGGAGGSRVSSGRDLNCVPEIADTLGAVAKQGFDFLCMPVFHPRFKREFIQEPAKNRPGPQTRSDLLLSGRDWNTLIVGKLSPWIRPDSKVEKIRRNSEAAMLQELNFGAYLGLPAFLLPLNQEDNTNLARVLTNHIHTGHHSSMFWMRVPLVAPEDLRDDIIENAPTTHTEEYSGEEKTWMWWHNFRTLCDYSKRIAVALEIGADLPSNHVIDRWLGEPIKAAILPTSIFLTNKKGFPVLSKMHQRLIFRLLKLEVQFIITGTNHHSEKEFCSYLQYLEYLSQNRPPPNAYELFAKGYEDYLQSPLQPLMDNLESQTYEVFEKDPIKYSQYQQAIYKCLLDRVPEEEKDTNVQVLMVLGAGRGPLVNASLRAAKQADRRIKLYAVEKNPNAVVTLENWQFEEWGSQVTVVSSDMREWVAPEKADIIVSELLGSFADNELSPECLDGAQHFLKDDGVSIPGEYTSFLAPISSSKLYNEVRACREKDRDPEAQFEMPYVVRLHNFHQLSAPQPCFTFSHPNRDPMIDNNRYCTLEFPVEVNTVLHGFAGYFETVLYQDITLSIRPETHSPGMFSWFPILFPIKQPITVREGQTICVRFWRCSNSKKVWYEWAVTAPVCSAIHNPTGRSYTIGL
# T1 sequence (Q9BQA1 whole entry partner): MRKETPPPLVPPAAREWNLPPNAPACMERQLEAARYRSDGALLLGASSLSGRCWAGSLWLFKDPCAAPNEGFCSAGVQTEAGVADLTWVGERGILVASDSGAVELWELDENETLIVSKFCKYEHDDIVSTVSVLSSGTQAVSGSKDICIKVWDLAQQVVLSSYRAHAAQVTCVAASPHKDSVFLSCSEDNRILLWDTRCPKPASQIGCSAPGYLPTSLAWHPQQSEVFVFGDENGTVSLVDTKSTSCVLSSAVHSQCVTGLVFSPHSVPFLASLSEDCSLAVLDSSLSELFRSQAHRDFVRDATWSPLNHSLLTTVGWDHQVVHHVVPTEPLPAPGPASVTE
row,SMILES,EC50 [nM]
1,"C[C@@]1(O)[C@@H]([C@@H](O)c2cc(F)c(F)c(C(F)F)c2)O[C@@H](n2ccc3c(N)ncnc32)[C@@H]1O [Example 65, 7-{(5S)-5-C-[3-(difluoromethyl)-4,5-difluorophenyl]-3-C-methyl-beta-D-ribofuranosyl}-7H-pyrrolo[2,3-d]pyrimidin-4-amine]",> 10000
2,"C[C@@]1(O)[C@@H]([C@@H](O)c2ccnc(C(F)F)c2)O[C@@H](n2ccc3c(N)ncnc32)[C@@H]1O [Example 79, 7-{(5S)-5-C-[2-(difluoromethyl)pyridin-4-yl]-3-C-methyl-beta-D-ribofuranosyl}-7H-pyrrolo[2,3-d]pyrimidin-4-amine]",> 10000
3,"Cc1ccccc1[C@H](O)[C@H]1O[C@@H](n2ccc3c(N)ncnc32)[C@H](O)[C@]1(C)O [Example 41, 7-[(5S)-3-C-methyl-5-C-(2-methylphenyl)-beta-D-ribofuranosyl]-7H-pyrrolo[2,3-d]pyrimidin-4-amine]",> 10000
4,"C[C@@]1(O)[C@@H]([C@@H](O)c2cccc(Cl)c2F)O[C@@H](n2ccc3c(N)ncnc32)[C@@H]1O [Example 47, 7-[(5S)-5-C-(3-chloro-2-fluorophenyl)-3-C-methyl-beta-D-ribofuranosyl]-7H-pyrrolo[2,3-d]pyrimidin-4-amine]",> 10000
5,"C[C@@]1(O)[C@@H]([C@@H](O)c2ccc(F)c(C(F)F)c2F)O[C@@H](n2ccc3c(N)ncnc32)[C@@H]1O [Example 68, 7-{(5S)-5-C-[3-(difluoromethyl)-2,4-difluorophenyl]-3-C-methyl-beta-D-ribofuranosyl}-7H-pyrrolo[2,3-d]pyrimidin-4-amine]",> 10000
6,"C[C@@]1(O)[C@@H]([C@@H](O)c2cc(F)cc(C(F)F)c2)O[C@@H](n2ccc3c(N)ncnc32)[C@@H]1O [Example 5, (2R,3S,4R,5R)-5-(4-amino-7H-pyrrolo[2,3-d]pyrimidin-7-yl)-2-((S)-(3-(difluoromethyl)-5-fluorophenyl)(hydroxy)methyl)-3-methyltetrahydrofuran-3,4-diol]",5060
7,"C[C@@]1(O)[C@@H]([C@@H](O)c2cc(C(F)F)ccn2)O[C@@H](n2ccc3c(N)ncnc32)[C@@H]1O [Example 73, 7-{(5S)-5-C-[4-(difluoromethyl)pyridin-2-yl]-3-C-methyl-beta-D-ribofuranosyl}-7H-pyrrolo[2,3-d]pyrimidin-4-amine]",> 10000
8,"C[C@@]1(O)[C@@H]([C@@H](O)c2ccc(Cl)c(Cl)c2)O[C@@H](n2ccc3c(N)ncnc32)[C@@H]1O [Example 14, 7-[(5S)-5-C-(3,4-dichlorophenyl)-3-C-methyl-beta-D-ribofuranosyl]-7H-pyrrolo[2,3-d]pyrimidin-4-amine]",> 10000
9,"COc1ccc([C@H](O)[C@H]2O[C@@H](n3ccc4c(N)ncnc43)[C@H](O)[C@]2(C)O)cc1 [Example 33, 7-[(5S)-5-C-(4-methoxyphenyl)-3-C-methyl-beta-D-ribofuranosyl]-7H-pyrrolo[2,3-d]pyrimidin-4-amine]",> 10000
10,"Cc1ccc([C@H](O)[C@H]2O[C@@H](n3ccc4c(N)ncnc43)[C@H](O)[C@]2(C)O)cc1 [Example 31, 7-[(5S)-3-C-methyl-5-C-(4-methylphenyl)-beta-D-ribofuranosyl]-7H-pyrrolo[2,3-d]pyrimidin-4-amine]",> 10000
11,"C[C@@]1(O)[C@@H]([C@@H](O)c2cc(Cl)cc(C(F)(F)F)c2)O[C@@H](n2ccc3c(N)ncnc32)[C@@H]1O [Example 61, 7-{(5S)-5-C-[3-chloro-5-(trifluoromethyl)phenyl]-3-C-methyl-beta-D-ribofuranosyl}-7H-pyrrolo[2,3-d]pyrimidin-4-amine]",> 10000
12,"C[C@@]1(O)[C@@H]([C@@H](O)c2ccc(F)c(F)c2)O[C@@H](n2ccc3c(N)ncnc32)[C@@H]1O [Example 2, (2R,3S,4R,5R)-5-(4-amino-7H-pyrrolo[2,3-d]pyrimidin-7-yl)-2-((S)-(3,4-difluorophenyl)(hydroxy)methyl)-3-methyltetrahydrofuran-3,4-diol]",> 10000

# Stronger by EC50, values ahead:
row,EC50 [nM],SMILES
1,474,"C[C@@]1(O)[C@@H]([C@H](O)c2ccc(F)cc2)O[C@@H](n2ccc3c(N)ncnc32)[C@@H]1O [Example 24, 7-[(5R)-5-C-(4-fluorophenyl)-3-C-methyl-beta-D-ribofuranosyl]-7H-pyrrolo[2,3-d]pyrimidin-4-amine]"
2,280,"C=C(c1cc(F)cc(C(F)F)c1)[C@H]1O[C@@H](n2ccc3c(N)ncnc32)[C@H](O)[C@]1(C)O [Example 82, (2R,3S,4R,5R)-5-(4-amino-7H-pyrrolo[2,3-d]pyrimidin-7-yl)-2-(1-(3-(difluoromethyl)-5-fluorophenyl)vinyl)-3-methyltetrahydrofuran-3,4-diol]"
3,3170,"Cc1ccc([C@@H](O)[C@H]2O[C@@H](n3ccc4c(N)ncnc43)[C@H](O)[C@]2(C)O)cc1 [Example 30, 7-[(5R)-3-C-methyl-5-C-(4-methylphenyl)-beta-D-ribofuranosyl]-7H-pyrrolo[2,3-d]pyrimidin-4-amine]"
4,2740,"COc1ccc([C@@H](O)[C@H]2O[C@@H](n3ccc4c(N)ncnc43)[C@H](O)[C@]2(C)O)cc1 [Example 32, 7-[(5R)-5-C-(4-methoxyphenyl)-3-C-methyl-beta-D-ribofuranosyl]-7H-pyrrolo[2,3-d]pyrimidin-4-amine]"
5,4,"C[C@]1(O)[C@@H](O)[C@H](n2ccc3c(N)ncnc32)O[C@@H]1[C@](C)(O)c1cc(F)cc(C(F)F)c1 [Example 66, 7-{6-deoxy-5-C-[3-(difluoromethyl)-5-fluorophenyl]-3-C-methyl-alpha-L-talofuranosyl}-7H-pyrrolo[2,3-d]pyrimidin-4-amine]"
6,16,"C[C@@]1(O)[C@@H]([C@H](O)c2cc(F)cc(C(F)F)c2)O[C@@H](n2ccc3c(N)ncnc32)[C@@H]1O [Example 4, (2R,3S,4R,5R)-5-(4-amino-7H-pyrrolo[2,3-d]pyrimidin-7-yl)-2-((R)-(3-(difluoromethyl)-5-fluorophenyl)(hydroxy)methyl)-3-methyltetrahydrofuran-3,4-diol]"
7,1330,"C[C@]1(O)[C@@H](O)[C@H](n2ccc3c(N)ncnc32)O[C@@H]1[C@](C)(O)c1cncc(C(F)F)c1 [Example 77, 7-{6-deoxy-5-C-[5-(difluoromethyl)pyridin-3-yl]-3-C-methyl-alpha-L-talofuranosyl}-7H-pyrrolo[2,3-d]pyrimidin-4-amine]"
8,0.54,"Cc1ncnc2c1ccn2[C@@H]1O[C@H]([C@](C)(O)c2cc(C(F)F)c(F)c3c2CNCC3)[C@@](C)(O)[C@H]1O [Example 91, (2R,3S,4R,5R)-2-((R)-1-(6-(difluoromethyl)-5-fluoro-1,2,3,4-tetrahydroisoquinolin-8-yl)-1-hydroxyethyl)-3-methyl-5-(4-methyl-7H-pyrrolo[2,3-d]pyrimidin-7-yl)tetrahydrofuran-3,4-diol]"
9,253,"C[C@H](c1cc(F)cc(C(F)F)c1)[C@H]1O[C@@H](n2ccc3c(N)ncnc32)[C@H](O)[C@]1(C)O (single isomer, unassigned) [Example 84]"
10,3240,"C[C@@]1(O)[C@@H]([C@H](O)c2ccc(F)c(F)c2F)O[C@@H](n2ccc3c(N)ncnc32)[C@@H]1O [Example 50, 7-[(5R)-3-C-methyl-5-C-(2,3,4-trifluorophenyl)-beta-D-ribofuranosyl]-7H-pyrrolo[2,3-d]pyrimidin-4-amine]"
11,403,"C[C@@]1(O)[C@@H]([C@H](O)c2cc(Cl)cc(C(F)(F)F)c2)O[C@@H](n2ccc3c(N)ncnc32)[C@@H]1O [Example 60, 7-{(5R)-5-C-[3-chloro-5-(trifluoromethyl)phenyl]-3-C-methyl-beta-D-ribofuranosyl}-7H-pyrrolo[2,3-d]pyrimidin-4-amine]"
12,80,"C[C@@]1(O)[C@@H]([C@H](O)c2cccc(Cl)c2)O[C@@H](n2ccc3c(N)ncnc32)[C@@H]1O [Example 16, 7-[(5R)-5-C-(3-chlorophenyl)-3-C-methyl-beta-D-ribofuranosyl]-7H-pyrrolo[2,3-d]pyrimidin-4-amine]"
13,391,"C[C@@]1(O)[C@@H]([C@H](O)c2cccc(C(F)(F)F)c2)O[C@@H](n2ccc3c(N)ncnc32)[C@@H]1O [Example 54, 7-{(5R)-3-C-methyl-5-C-[3-(trifluoromethyl)phenyl]-beta-D-ribofuranosyl}-7H-pyrrolo[2,3-d]pyrimidin-4-amine]"
14,507,"C[C@]1(O)[C@@H](O)[C@H](n2ccc3c(N)ncnc32)O[C@@H]1[C@@](C)(O)c1cccc2c1CNCC2 [Example 69, 7-[6-deoxy-3-C-methyl-5-C-(1,2,3,4-tetrahydroisoquinolin-8-yl)-beta-D-allofuranosyl]-7H-pyrrolo[2,3-d]pyrimidin-4-amine]"
